The target in one series is IKZF1 (Homo sapiens (Human), UniProt Q13422). Nature of the series: IKZF1 degradation in cells treated with compound (FIG. 1A). The format is cell-based. Conditions: concentrations up to 30 µM.
Another series relates to NCI-H1155. Nature of the series: Viability of NSCLC cell line, high N-Myc (FIG. 2A). The format is cell-based, human. The conditions noted are these: compared to low N-Myc lines EBC-1, NCI-H2023.
Another series has as its system ABC-1. Nature of the series: Viability of NSCLC cell line, high N-Myc (FIG. 2A). Type of series: cell-based. The conditions noted are these: ABC-1, high N-Myc; compared to low N-Myc lines EBC-1, NCI-H2023.
The test system of series [1] is human cell line NCI-H1155. Nature of the series: N-Myc-driven mouse xenograft model, NCI-H1155 (FIG. 3A). The format is in vivo. The conditions noted are these: for tumor size (tumor volume): study to day 21.
Series [2] concerns human cell line NCI-H1770. Nature of the series: N-Myc-driven mouse xenograft model, NCI-H1770 (FIG. 3C). Type of series: in vivo.
In another series the test system is human cell line NCI-H526. Nature of the series: N-Myc-driven mouse xenograft model, NCI-H526 (FIG. 3D). Type of series: in vivo.
The target of the next series is SALL4 (Homo sapiens (Human), UniProt Q9UJQ4). In words: substrate degradation in cells (FIG. 1A), SALL4. The format is cell-based. Conditions: highest concentration tested of 30 μM.
SALL4, sequence (Q9UJQ4 whole entry, looked up): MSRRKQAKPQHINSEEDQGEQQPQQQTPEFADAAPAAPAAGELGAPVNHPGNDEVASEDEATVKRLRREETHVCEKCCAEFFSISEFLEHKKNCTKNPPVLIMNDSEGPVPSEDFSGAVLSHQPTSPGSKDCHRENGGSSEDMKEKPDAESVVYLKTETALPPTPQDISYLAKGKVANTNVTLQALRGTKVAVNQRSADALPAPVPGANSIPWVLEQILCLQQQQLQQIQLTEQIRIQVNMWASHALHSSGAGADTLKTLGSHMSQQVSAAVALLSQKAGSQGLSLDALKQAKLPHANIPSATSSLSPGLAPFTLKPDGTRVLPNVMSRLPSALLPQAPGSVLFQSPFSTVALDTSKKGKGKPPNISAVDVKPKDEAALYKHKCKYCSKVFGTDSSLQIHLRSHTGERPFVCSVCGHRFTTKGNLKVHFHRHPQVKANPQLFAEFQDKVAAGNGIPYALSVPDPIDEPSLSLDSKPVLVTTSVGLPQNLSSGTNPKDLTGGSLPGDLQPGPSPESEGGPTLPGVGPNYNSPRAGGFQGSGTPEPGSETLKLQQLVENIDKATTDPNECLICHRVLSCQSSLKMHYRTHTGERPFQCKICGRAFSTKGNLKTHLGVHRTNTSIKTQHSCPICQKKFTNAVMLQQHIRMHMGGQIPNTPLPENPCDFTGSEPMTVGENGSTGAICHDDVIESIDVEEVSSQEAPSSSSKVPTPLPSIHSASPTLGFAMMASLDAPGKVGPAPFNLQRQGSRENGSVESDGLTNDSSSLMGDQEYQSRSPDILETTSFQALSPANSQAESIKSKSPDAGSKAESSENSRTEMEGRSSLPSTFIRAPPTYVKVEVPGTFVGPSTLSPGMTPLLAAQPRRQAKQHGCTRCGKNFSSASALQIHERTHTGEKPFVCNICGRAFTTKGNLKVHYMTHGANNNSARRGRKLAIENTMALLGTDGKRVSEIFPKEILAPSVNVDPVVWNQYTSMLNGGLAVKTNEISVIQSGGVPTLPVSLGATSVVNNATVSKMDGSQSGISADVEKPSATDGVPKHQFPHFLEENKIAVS
In series [3] the test system is NCI-H1155, ABC-1 and EBC-1, NCI-H2023. In words: viability assay (CellTiter-Glo) in N-Myc high and N-Myc low NSCLC cell lines. Type of series: cell-based. The conditions noted are these: 72 hours. As to the method:
The anti-proliferative activity of compound 10 was tested on representative N-Myc high and N-Myc low cell lines (NCI-H1155, ABC-1 and EBC-1, NCI-H2023, respectively) following treatment with compound for 72 hours. Cells were sub-cultures as recommended by the providers (ATCC, DSMZ) and incubated at 37° C., 5% CO2. All cells were authenticated and confirmed by Short Tandem Repeat (STR) profiling. Briefly, cells were seeded to the appropriate density to allow logarithmic growth over the assay period in 96-well opaque-walled clear bottom plates (from Corning, Cat. No. 3903, Lot. No. 16419061; 100 μL total volume) and incubated overnight. […] Cell viability was assessed using the CellTiter-Glo assay kit as recommended by the Manufacturer (Promega, Cat. No. G7558, Lot. No. 0000385738) and measurements performed on the EnSpire multimode plate reader (Perkin Elmer). EC50 values were determined using Prism8 (GraphPad) and the asymmetric (five-parameter) equation and least squares fit. GSPT1 levels were assessed in the NCI-H1155 and ABC-1 cell lines by densitometry analysis following treatment with compound 10 for 6 hours and western blotting analysis. […] For chemiluminescence and colorimetric signals “optimal automatic exposure” settings (3×3 binning) were employed while fluorescence was detected using 1-4 seconds exposure time to achieve best GAPDH signals and avoid overexposure. […]
On the technique in general: In ATP-based viability assays light output follows the ATP content of the culture.

The target in series [4] is GSPT1 (Homo sapiens (Human), UniProt P15170+Q96SW2). Nature of the series: GSPT1 levels by western blotting and densitometry in NCI-H1155 and ABC-1 cell lines. Type of series: cell-based. The conditions noted are these: for DC50: six hours. As to the method:
The anti-proliferative activity of compound 10 was tested on representative N-Myc high and N-Myc low cell lines (NCI-H1155, ABC-1 and EBC-1, NCI-H2023, respectively) following treatment with compound for 72 hours. Cells were sub-cultures as recommended by the providers (ATCC, DSMZ) and incubated at 37° C., 5% CO2. All cells were authenticated and confirmed by Short Tandem Repeat (STR) profiling. Briefly, cells were seeded to the appropriate density to allow logarithmic growth over the assay period in 96-well opaque-walled clear bottom plates (from Corning, Cat. No. 3903, Lot. No. 16419061; 100 μL total volume) and incubated overnight. Compound 10 and DMSO control were subsequently dispensed to the plates using HPD300 and a 9 data-point titration curve with concentrations ranging from 30 μM to 0.1 nM. Dilutions were prepared fresh prior to the assay using a 10 mM DMSO stock. Final DMSO concentration was 0.5%. The plates were incubated for 3 days at 5% CO2, 37° C. Cell viability was assessed using the CellTiter-Glo assay kit as recommended by the Manufacturer (Promega, Cat. No. G7558, Lot. No. 0000385738) and measurements performed on the EnSpire multimode plate reader (Perkin Elmer). EC50 values were determined using Prism8 (GraphPad) and the asymmetric (five-parameter) equation and least squares fit. GSPT1 levels were assessed in the NCI-H1155 and ABC-1 cell lines by densitometry analysis following treatment with compound 10 for 6 hours and western blotting analysis. […] Membranes were then transferred between two clean sheets of plastic and chemiluminescence (GSPT1), Dylight680 fluorescence (GAPDH) as well as colorimetric (molecular weight standard) signals were detected using a Chemidoc MP imaging system (BioRad 17001402). For chemiluminescence and colorimetric signals “optimal automatic exposure” settings (3×3 binning) were employed while fluorescence was detected using 1-4 seconds exposure time to achieve best GAPDH signals and avoid overexposure. […]
Background: In western blotting, separated proteins are transferred to a membrane and probed.

Series [5] concerns the target GSPT1 (Homo sapiens (Human), UniProt P15170). In words: GSPT1 levels in NCI-H1155 tumors by western blotting. Conditions: 6 hours after the third dose, all three dose levels. The format is in vivo, female BALB/c nude mice. As to the method:
GSPT1 levels in tumors were determined by western blotting 6 hours after the third dose. Western blotting was performed as described previously using GAPDH as loading control.

The mark [6] stands for this setting: 6 mg/kg PO five days on and nine days off.

Experimental findings from US11912682B2, “Isoindolinone compounds” (Monte Rosa Therapeutics, Inc., priority 2021, dated 2024) are described below.

The structures appear in SMILES notation.

GSPT1 (Homo sapiens (Human), UniProt P15170+Q96SW2), sequence (P15170 whole entry): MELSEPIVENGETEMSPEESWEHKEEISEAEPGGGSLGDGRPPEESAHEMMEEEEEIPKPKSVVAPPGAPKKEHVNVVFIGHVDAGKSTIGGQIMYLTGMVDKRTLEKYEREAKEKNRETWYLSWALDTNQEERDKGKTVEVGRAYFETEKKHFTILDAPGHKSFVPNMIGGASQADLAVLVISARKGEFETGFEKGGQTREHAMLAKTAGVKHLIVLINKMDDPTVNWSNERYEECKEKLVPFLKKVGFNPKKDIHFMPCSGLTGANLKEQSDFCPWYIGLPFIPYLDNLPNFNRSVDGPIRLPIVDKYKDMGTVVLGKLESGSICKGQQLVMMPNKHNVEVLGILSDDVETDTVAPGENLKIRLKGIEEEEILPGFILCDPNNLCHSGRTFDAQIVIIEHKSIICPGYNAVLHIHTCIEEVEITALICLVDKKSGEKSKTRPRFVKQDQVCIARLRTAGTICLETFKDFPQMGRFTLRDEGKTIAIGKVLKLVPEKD
GSPT1 (Homo sapiens (Human), UniProt P15170+Q96SW2), sequence (Q96SW2 whole entry): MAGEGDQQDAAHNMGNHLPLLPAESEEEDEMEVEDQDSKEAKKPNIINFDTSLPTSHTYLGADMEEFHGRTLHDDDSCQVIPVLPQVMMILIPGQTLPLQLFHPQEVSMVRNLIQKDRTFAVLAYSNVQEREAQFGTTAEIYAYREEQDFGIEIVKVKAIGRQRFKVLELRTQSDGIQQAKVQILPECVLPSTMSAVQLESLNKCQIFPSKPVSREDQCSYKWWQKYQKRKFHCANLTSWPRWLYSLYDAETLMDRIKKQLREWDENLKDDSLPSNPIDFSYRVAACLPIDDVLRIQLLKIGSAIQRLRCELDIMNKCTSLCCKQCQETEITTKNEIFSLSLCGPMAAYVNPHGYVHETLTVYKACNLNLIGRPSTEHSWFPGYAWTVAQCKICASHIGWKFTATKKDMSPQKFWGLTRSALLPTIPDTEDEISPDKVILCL
GSPT1 (Homo sapiens (Human), UniProt P15170+Q96SW2), sequence (Q16531 2-1140 partner): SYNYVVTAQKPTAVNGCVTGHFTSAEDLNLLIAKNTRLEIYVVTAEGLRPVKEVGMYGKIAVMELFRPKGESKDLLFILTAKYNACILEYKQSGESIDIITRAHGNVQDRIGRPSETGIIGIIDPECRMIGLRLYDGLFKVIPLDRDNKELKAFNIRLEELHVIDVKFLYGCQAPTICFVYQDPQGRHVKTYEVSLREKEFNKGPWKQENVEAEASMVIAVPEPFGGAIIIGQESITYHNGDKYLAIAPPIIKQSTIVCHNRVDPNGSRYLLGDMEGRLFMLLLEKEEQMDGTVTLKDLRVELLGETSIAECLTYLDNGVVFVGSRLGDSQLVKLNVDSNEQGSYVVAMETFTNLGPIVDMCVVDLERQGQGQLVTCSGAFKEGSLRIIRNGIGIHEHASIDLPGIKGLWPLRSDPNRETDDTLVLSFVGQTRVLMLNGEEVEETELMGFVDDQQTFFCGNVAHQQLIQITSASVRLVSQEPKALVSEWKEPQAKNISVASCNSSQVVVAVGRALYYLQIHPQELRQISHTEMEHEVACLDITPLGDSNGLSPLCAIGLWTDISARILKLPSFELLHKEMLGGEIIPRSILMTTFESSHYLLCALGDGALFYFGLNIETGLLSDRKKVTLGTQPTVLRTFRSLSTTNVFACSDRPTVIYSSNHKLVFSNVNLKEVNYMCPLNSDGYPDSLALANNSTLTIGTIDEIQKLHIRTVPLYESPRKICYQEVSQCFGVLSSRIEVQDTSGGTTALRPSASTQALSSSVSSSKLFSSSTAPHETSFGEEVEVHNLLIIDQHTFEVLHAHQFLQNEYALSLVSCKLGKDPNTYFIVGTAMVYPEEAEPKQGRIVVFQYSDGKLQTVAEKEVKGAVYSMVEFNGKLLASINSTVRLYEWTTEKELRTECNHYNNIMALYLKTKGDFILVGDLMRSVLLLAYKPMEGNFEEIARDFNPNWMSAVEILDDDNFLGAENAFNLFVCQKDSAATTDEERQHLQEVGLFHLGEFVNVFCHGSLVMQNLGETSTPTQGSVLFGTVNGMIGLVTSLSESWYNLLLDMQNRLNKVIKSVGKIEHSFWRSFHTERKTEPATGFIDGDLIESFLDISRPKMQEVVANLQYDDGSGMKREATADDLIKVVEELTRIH
GSPT1 (Homo sapiens (Human), UniProt P15170), sequence (P15170 whole entry): as the sequence (P15170 whole entry) above
GSPT1 (Homo sapiens (Human), UniProt P15170), sequence (Q96SW2 whole entry, further chain): as the sequence (Q96SW2 whole entry) above
GSPT1 (Homo sapiens (Human), UniProt P15170), sequence (Q16531 2-1140 partner): as the sequence (Q16531 2-1140 partner) above
IKZF1, sequence (Q13422 whole entry, looked up): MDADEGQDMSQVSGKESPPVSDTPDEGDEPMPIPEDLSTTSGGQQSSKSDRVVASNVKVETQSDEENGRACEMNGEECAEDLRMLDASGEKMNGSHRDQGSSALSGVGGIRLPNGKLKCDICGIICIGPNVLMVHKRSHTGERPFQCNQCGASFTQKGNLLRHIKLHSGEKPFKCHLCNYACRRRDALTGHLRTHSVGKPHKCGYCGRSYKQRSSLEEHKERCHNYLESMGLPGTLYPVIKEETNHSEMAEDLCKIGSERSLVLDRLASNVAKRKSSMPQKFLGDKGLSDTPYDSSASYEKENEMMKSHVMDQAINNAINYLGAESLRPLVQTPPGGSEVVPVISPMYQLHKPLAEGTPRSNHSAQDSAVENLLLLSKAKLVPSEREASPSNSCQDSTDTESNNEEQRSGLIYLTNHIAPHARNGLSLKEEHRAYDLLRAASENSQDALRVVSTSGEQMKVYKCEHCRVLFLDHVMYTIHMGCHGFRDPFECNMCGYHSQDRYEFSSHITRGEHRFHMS

On to `Cc1ccc(NC(=O)OCc2ccc3c(c2)C(=O)N(C2CCC(=O)NC2=O)C3)cc1Cl` (stereo not shown) [Compound 10], for which, at IKZF1, the “degradation of IKZF1” value was “no induction of degradation”. For the same molecule, the “sensitivity to treatment (viability in %)” value with NCI-H1155 and in the series on ABC-1 was “highly sensitive” throughout. Besides, in series [1] (1 mg/kg PO once daily), the “tumor growth (tumor volume)” value is “tumor growth was suppressed for two weeks”. Further, the “tumor size (tumor volume)” value in series [1] (3 mg/kg PO once daily) is “tumor size decreased, became undetectable by day eight and remained so until the end of the study at day 21”; in series [1] (setting [6]), “tumor size decreased, became undetectable by day eight and remained so until the end of the study at day 21”; in [2] (3 mg/kg PO once daily), “tumor size decreased and remained so until the end of the study”; in [2] (setting [6]), “tumor size decreased and remained so until the end of the study”; in the series with human cell line NCI-H526 (3 mg/kg PO once daily) it was “tumor size decreased and remained so until the end of the study”; with human cell line NCI-H526 (setting [6]), “tumor size decreased and remained so until the end of the study”. In addition, the body weight entry (in series [1] (oral administration); in [2] (oral administration); with human cell line NCI-H526 (oral administration)) was “no body weight loss” throughout. Further, the “effect on tumor growth (tumor volume)” value (in series [1] (oral administration); in series [2] (oral administration); with human cell line NCI-H526 (oral administration)) was “tumor growth inhibition” each time. Also, the “SALL4 degradation (FIG. 1A)” value at SALL4 is “none of the known the substrates IKZF1, IKZF3, SALL4, CK1alpha was degraded”. Moreover, the “anti-proliferative sensitivity (FIG. 2A)” value in [3] was “sensitivity correlated with the expression of N-Myc”. Also, the DC50 on GSPT1 [4] (ABC-1 cells) was found to be 22 nM; on GSPT1 [4] (NCI-H1155 cells) it was 3 nM. On GSPT1 [4] (high N-Myc NCI-H1155 and ABC-1 cells, six hours of treatment), the GSPT1 degradation entry is on record as “Complete degradation of GSPT1”. Moreover, on GSPT1 [5], the “GSPT1 levels in tumors (FIG. 3B)” value is given as “Complete degradation of GSPT1”.
